# Data: PMC2642729, “Interpain A, a Cysteine Proteinase from Prevotella intermedia, Inhibits Complement by Degrading Complement Factor C3” (PLoS Pathogens, 2009)
# Biological target: T1, interpain A (InpA) (Prevotella intermedia, UniProt A9J7N5)
# T1 construct: gene pin0048; full precursor 868 residues with 44-residue signal peptide; mature form 28 kDa (Val112-Pro359)
# Assay: active-site titration; residual activity by AMC release from Boc-Val-Leu-Lys-AMC
# Assay type: biochemical
# Conditions: titrated to total inactivation; pH 7.5, 5 mM EDTA, 2 mM DTT; 37 min preincubation at room temperature; covalent active-site cysteine inhibitor (mode known, not given)
# T1 sequence (A9J7N5 entry or part of it): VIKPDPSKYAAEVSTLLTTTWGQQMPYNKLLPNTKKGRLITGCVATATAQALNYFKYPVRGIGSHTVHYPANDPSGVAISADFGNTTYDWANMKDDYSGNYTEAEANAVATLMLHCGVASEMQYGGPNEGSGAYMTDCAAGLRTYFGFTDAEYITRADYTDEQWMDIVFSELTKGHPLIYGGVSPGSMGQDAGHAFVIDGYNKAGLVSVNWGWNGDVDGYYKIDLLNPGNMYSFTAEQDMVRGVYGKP
smiles,measurement,value
CC(C)C[C@H](NC(=O)[C@H]1O[C@@H]1C(=O)O)C(=O)NCCCCNC(=N)N [E64],active-site titration; residual activity by AMC release from Boc-Val-Leu-Lys-AMC,determined by active site titration using inhibitor E64 (Sigma)
